# Molecular target: HLA-A*02:01 (Homo sapiens, UniProt P04439, D140Y/D185E/D98H/E176V/E277Q/G131W/G231S/I119V/I121R/I166T/I218V/L300P/L318F/N151K/N90K/P208A/P217A/Q86G/Q94H/R138H/R169H/T345S)
# Assay: MHC binding assay (UV-ligand exchange, β2m ELISA)
# Settings: MHC class I binding score; binding to HLA-A*02:01 ranged by peptide exchange yield (UV-ligand exchange, β2m ELISA)
# In short: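 Peptide–MHC complexes formed by UV-ligand exchange, cleaving a UV-sensitive peptide so the test peptide can bind. Exchange yield measured by ELISA: complexes captured on streptavidin-coated wells, diluted 100-fold, detected with HRP anti-β2m (1 h, 37 °C) and TMB at 450 nm, against refolded HLA-A*02:01/MLA-001 standards (15-500 ng/ml).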
row,Peptide exchange,Substance
1,++++ (>75% = ++++),3 (VLFKDPVSV; listed as Homo sapiens) [compound 3]
2,++++ (>75% = ++++),4 (KTWDQVPFSV; listed as Homo sapiens) [compound 4]
3,++++ (>75% = ++++),8 (SIIPYLLEA; listed as Homo sapiens) [compound 8]
4,++++ (>75% = ++++),9 (SLAGLVLYV; listed as Homo sapiens) [compound 9]
5,++++ (>75% = ++++),10 (KMTQYITEL; listed as Homo sapiens) [compound 10]
6,++++ (>75% = ++++),11 (TLIELLLPKL; listed as Homo sapiens) [compound 11]
7,+++ (>50 = +++),12 (RLDDKTTNV; listed as Homo sapiens) [compound 12]
8,++++ (>75% = ++++),236 (GLDSGFHSV; listed as Homo sapiens) [compound 236]
9,++++ (>75% = ++++),237 (VLYNESLQL; listed as Homo sapiens) [compound 237]

# System: CD8+ T cells
# Assay: In vitro immunogenicity: T-cell priming with artificial APCs loaded with peptide/MHC and anti-CD28, pMHC multimer readout
# Format: cell-based, human
# Settings: Table 10A; HLA class I peptides
# Source text: In order to obtain information regarding the immunogenicity of the TUMAPs of the present invention, the inventors performed investigations using an in vitro T-cell priming assay based on repeated stimulations of CD8+ T cells with artificial antigen presenting cells (aAPCs) loaded with peptide/MHC complexes and anti-CD28 antibody.
# In order to perform in vitro stimulations by artificial antigen presenting cells loaded with peptide-MHC complex (pMHC) and anti-CD28 antibody, the inventors first isolated CD8+ T cells from fresh HLA-A*02 leukapheresis products via positive selection using CD8 microbeads (Miltenyi Biotec, Bergisch-Gladbach, Germany) of healthy donors obtained from the University clinics Mannheim, Germany, after informed consent.
# PBMCs and isolated CD8+ lymphocytes were incubated in T-cell medium (TCM) until use consisting of RPMI-Glutamax (Invitrogen, Karlsruhe, Germany) supplemented with 10% heat inactivated human AB serum (PAN-Biotech, Aidenbach, Germany), 100 U/ml Penicillin/100 μg/ml Streptomycin (Cambrex, Cologne, Germany), 1 mM sodium pyruvate (CC Pro, Oberdorla, Germany), 20 μg/ml Gentamycin (Cambrex). 2.5 ng/ml IL-7 (PromoCell, Heidelberg, Germany) and 10 U/ml IL-2 (Novartis Pharma, Nürnberg, Germany) were also added to the TCM at this step.
# Generation of pMHC/anti-CD28 coated beads, T-cell stimulations and readout was performed in a highly defined in vitro system using four different pMHC molecules per stimulation condition and 8 different pMHC molecules per readout condition.
# The purified co-stimulatory mouse IgG2a anti human CD28 Ab 9.3 (Jung et al., 1987) was chemically biotinylated using Sulfo-N-hydroxysuccinimidobiotin as recommended by the manufacturer (Perbio, Bonn, Germany). Beads used were 5.6 μm diameter streptavidin coated polystyrene particles (Bangs Laboratories, Illinois, USA).
# 800.000 beads/200 μl were coated in 96-well plates in the presence of 4×12.5 ng different biotin-pMHC, washed and 600 ng biotin anti-CD28 were added subsequently in a volume of 200 μl. Stimulations were initiated in 96-well plates by co-incubating 1×10^6 CD8+ T cells with 2×10^5 washed coated beads in 200 μl TCM supplemented with 5 ng/ml IL-12 (PromoCell) for 3 days at 37° C. Half of the medium was then exchanged by fresh TCM supplemented with 80 U/ml IL-2 and incubating was continued for 4 days at 37° C. This stimulation cycle was performed for a total of three times. For the pMHC multimer readout using 8 different pMHC molecules per condition, a two-dimensional combinatorial coding approach was used as previously described (Andersen et al., 2012) with minor modifications encompassing coupling to 5 different fluorochromes. Finally, multimeric analyses were performed by staining the cells with Live/dead near IR dye (Invitrogen, Karlsruhe, Germany), CD8-FITC antibody clone SK1 (BD, Heidelberg, Germany) and fluorescent pMHC multimers. For analysis, a BD LSRII SORP cytometer equipped with appropriate lasers and filters was used. Peptide specific cells were calculated as percentage of total CD8+ cells. Evaluation of multimeric analysis was done using the FlowJo software (Tree Star, Oregon, USA). In vitro priming of specific multimer+CD8+ lymphocytes was detected by comparing to negative control stimulations.
Substance,Donors (in vitro immunogenicity),Wells (in vitro immunogenicity)
238 (KLLDKPEQFL; listed as Homo sapiens) [compound 238],++ (20%-49% = ++),+ (<20% = +)
241 (RLYTKLLNEA; listed as Homo sapiens) [compound 241],++++ (≥70% = ++++),+++ (50%-69% = +++)
243 (ALAGIVTNV; listed as Homo sapiens) [compound 243],++++ (≥70% = ++++),+ (<20% = +)
247 (ALLNAILHSA; listed as Homo sapiens) [compound 247],++++ (≥70% = ++++),+ (<20% = +)
248 (GLFAGLGGAGA; listed as Homo sapiens) [compound 248],++++ (≥70% = ++++),+ (<20% = +)
250 (RVLPPSALQSV; listed as Homo sapiens) [compound 250],+++ (50%-69% = +++),+ (<20% = +)
252 (YLLDMPLWYL; listed as Homo sapiens) [compound 252],++++ (≥70% = ++++),+ (<20% = +)
254 (FLMKNSDLYGA; listed as Homo sapiens) [compound 254],++++ (≥70% = ++++),+ (<20% = +)
257 (VLLNEILEQV; listed as Homo sapiens) [compound 257],++++ (≥70% = ++++),++ (20%-49% = ++)
262 (KLAVALLAA; listed as Homo sapiens) [compound 262],++ (20%-49% = ++),++ (20%-49% = ++)
264 (KVFDEVIEV; listed as Homo sapiens) [compound 264],+ (<20% = +),+ (<20% = +)
267 (LLTDNVVKL; listed as Homo sapiens) [compound 267],++++ (≥70% = ++++),+ (<20% = +)
269 (ALNESLVEC; listed as Homo sapiens) [compound 269],++++ (≥70% = ++++),+ (<20% = +)
271 (SLVQRVETI; listed as Homo sapiens) [compound 271],++ (20%-49% = ++),+ (<20% = +)
277 (KTASINQNV; listed as Homo sapiens) [compound 277],++++ (≥70% = ++++),+++ (50%-69% = +++)
278 (SLITGQDLLSV; listed as Homo sapiens) [compound 278],++++ (≥70% = ++++),+ (<20% = +)
283 (YTFSGDVQL; listed as Homo sapiens) [compound 283],++++ (≥70% = ++++),+ (<20% = +)

Substance,Donors (in vitro immunogenicity),Wells (in vitro immunogenicity)
287 (KISDFGLATV; listed as Homo sapiens) [compound 287],++++ (≥70% = ++++),++ (20%-49% = ++)
292 (ALGDKFLLRV; listed as Homo sapiens) [compound 292],++++ (≥70% = ++++),+ (<20% = +)
294 (FLLAEDTKV; listed as Homo sapiens) [compound 294],++++ (≥70% = ++++),++ (20%-49% = ++)
298 (KLQEEIPVL; listed as Homo sapiens) [compound 298],++++ (≥70% = ++++),+ (<20% = +)
308 (KLLSDPNYGV; listed as Homo sapiens) [compound 308],++++ (≥70% = ++++),+ (<20% = +)
310 (ALASVIKEL; listed as Homo sapiens) [compound 310],++ (20%-49% = ++),+ (<20% = +)
315 (KLSWDLIYL; listed as Homo sapiens) [compound 315],++++ (≥70% = ++++),++ (20%-49% = ++)
318 (SIIEYLPTL; listed as Homo sapiens) [compound 318],++++ (≥70% = ++++),+ (<20% = +)
320 (KIIGIMEEV; listed as Homo sapiens) [compound 320],++++ (≥70% = ++++),++++ (≥70% = ++++)
321 (YLPTFFLTV; listed as Homo sapiens) [compound 321],+++ (50%-69% = +++),++ (20%-49% = ++)
322 (SLHFLILYV; listed as Homo sapiens) [compound 322],+++ (50%-69% = +++),++ (20%-49% = ++)
323 (VVDKTLLLV; listed as Homo sapiens) [compound 323],++++ (≥70% = ++++),+++ (50%-69% = +++)
326 (ALSGTLSGV; listed as Homo sapiens) [compound 326],++++ (≥70% = ++++),+ (<20% = +)
328 (SLSQELVGV; listed as Homo sapiens) [compound 328],++ (20%-49% = ++),+ (<20% = +)
332 (AVVEFLTSV; listed as Homo sapiens) [compound 332],++ (20%-49% = ++),+ (<20% = +)
336 (YVDPVITSI; listed as Homo sapiens) [compound 336],++++ (≥70% = ++++),++ (20%-49% = ++)

# Same assay, conditions: Table 10B; HLA-A*02 restricted peptides; percentage of positive wells among evaluable
row,Substance,Wells positive [%]
1,3 (VLFKDPVSV; listed as Homo sapiens) [compound 3],+ (<20% = +)
2,4 (KTWDQVPFSV; listed as Homo sapiens) [compound 4],+ (<20% = +)
3,8 (SIIPYLLEA; listed as Homo sapiens) [compound 8],++ (20%-49% = ++)
4,9 (SLAGLVLYV; listed as Homo sapiens) [compound 9],++ (20%-49% = ++)
5,10 (KMTQYITEL; listed as Homo sapiens) [compound 10],++ (20%-49% = ++)
6,11 (TLIELLLPKL; listed as Homo sapiens) [compound 11],+ (<20% = +)
7,12 (RLDDKTTNV; listed as Homo sapiens) [compound 12],++ (20%-49% = ++)
